pEC50: −log10 of the molar value. “And” between values parts separate entries of the source, which are not always exact repeats. Identical values can stand only once. Like-named read-outs stand apart in the source and are kept apart here.
Assays:
[1] = biological target: T1, Mdm2-luciferase fusion protein (Homo sapiens, UniProt Q00987); test: cell-based Mdm2 auto-ubiquitination luminescence assay, Mdm2-luciferase cell line; details: for luminescence of the Mdm2-luciferase cell line: 384-well format
T1 construct: Using full-length Mdm2 allowed for the presence of all domains of Mdm2; expressed in transfected cells
Procedure: Cells were plated in 384-well format and treated with MG132 (2 hours) or cycloheximide (30 minutes). Steadylite luminescence buffer (PerkinElmer) was added and the relative luminescence levels determined on a Victor3 Plate Reader. Each graph represents the median of 5 replicates normalized to a no treatment control, and one standard deviation is shown. […] The graphs and EC50 values were determined using Graphpad PRISM®. […] U2OS, RKO, and HCT116 cells (p53 wild-type) were incubated with 5 μg/ml (14 μM) of MEL23, 5 μg/ml (15 μM) of MEL24, or 10 μM of MG132 for 6 hours. Cells were lysed and analyzed by Western blotting using anti-Mdm2, anti-p53, and anti-eIF4E antibodies. NT indicates a no treatment control. […] MCF7 cells (p53 wild-type) were incubated with 30 μg/ml (51 μM) etoposide alone or in combination with 50 μM AlIn or 5 μg/ml (14 μM) MEL23, or 5 μg/ml (15 μM) MEL24 for 16 hours. Cells were lysed and analyzed by Western blotting using anti-MDMX and anti-actin antibodies.
The Mdm2-luciferase cell line was seeded at 7,500 cells per well, in 384-well white plates (PerkinElmer, Waltham, Mass., Cat. No. 6007688), in 27 μl of media (DMEM with FBS and P/S). Assay plates with cells were incubated at 37° C. overnight to allow cells to adhere. After 24 hours, 2 μl from the ‘mother’ plate (4 mg/ml) was transferred to a ‘daughter plate’ containing 148 μl media in order to dilute the compound 1:75. Next, 3 μl from each well of the ‘daughter plates’ was added to triplicate assay plates for a final concentration of 5.33 μg/ml. Assay plates were incubated at 37° C. for 2 hours. Then the cells were lysed with the addition of 30 μl of luminescence buffer (PerkinElmer, Cat. No. 6016989), and the plates were incubated at room temperature for 30 minutes before being analyzed on a Victor3 Plate Reader (PerkinElmer) for luminescence. […] All repurchased compounds were tested in a 2-fold dilution series via the same protocol as the primary screening. All transfers were conducted using a BioMek (Beckman Coulter, Fullerton, Calif.). […] This was determined by comparing the negative control, no treatment, to the positive control, 10 μM MG132.
To identify Mdm2 E3 ligase inhibitors, a high-throughput cellular assay to measure changes in Mdm2 auto-ubiquitination and degradation was designed. This assay took advantage of the fact that Mdm2 can regulate itself in cells through ubiquitination and degradation (8). Two fusion proteins were constructed for the assay: (a) a wild-type Mdm2-luciferase fusion protein, which can auto-ubiquitinate and thereby target itself for degradation; and (b) a mutant Mdm2(C464A)-luciferase fusion protein. Both fusion proteins were constructed with luciferase N-terminal to Mdm2. The C464A mutation disrupts a metal binding site in the RING domain, thereby preventing Mdm2 E3 ligase activity (8). Small molecules that increase the luminescence of the Mdm2-luciferase fusion protein without increasing the luminescence of the Mdm2(C464A)-luciferase fusion protein are likely inhibiting Mdm2 E3 ligase activity or the proteasomal degradation of Mdm2. Alternatively, small molecules that increase the luminescence of both fusion proteins are likely affecting transcription, translation, or have a general cellular impact that is not dependent on the E3 ligase activity of Mdm2 or proteasomal degradation.

[2] = biological target: T2, Mdm2(C464A)-luciferase fusion protein (Homo sapiens, UniProt Q00987, C464A); test: counter screen in control Mdm2(C464A)-luciferase cell line; type: cell-based
T2 construct: Using full-length Mdm2 allowed for the presence of all domains of Mdm2; expressed in transfected cells
Procedure: The Mdm2-luciferase cell line was seeded at 7,500 cells per well, in 384-well white plates (PerkinElmer, Waltham, Mass., Cat. No. 6007688), in 27 μl of media (DMEM with FBS and P/S). Assay plates with cells were incubated at 37° C. overnight to allow cells to adhere. After 24 hours, 2 μl from the ‘mother’ plate (4 mg/ml) was transferred to a ‘daughter plate’ containing 148 μl media in order to dilute the compound 1:75. Next, 3 μl from each well of the ‘daughter plates’ was added to triplicate assay plates for a final concentration of 5.33 μg/ml. Assay plates were incubated at 37° C. for 2 hours. Then the cells were lysed with the addition of 30 μl of luminescence buffer (PerkinElmer, Cat. No. 6016989), and the plates were incubated at room temperature for 30 minutes before being analyzed on a Victor3 Plate Reader (PerkinElmer) for luminescence. Compounds that caused an increase in luminescence greater than 30% were re-ordered for further analysis. […] This was determined by comparing the negative control, no treatment, to the positive control, 10 μM MG132. […]
The above experiments verified that the cell lines could function as a valid system to screen for Mdm2 E3 ligase inhibitors. […] All compounds were incubated with the Mdm2-luciferase cell line for 2 hours, after which relative luminescence was detected by the addition of a luminesence buffer. […]

[3] = system: RKO, RKO E6, H1299 and MEF's; test: cell cycle analysis by propidium iodide flow cytometry; type: cell-based; details: two days incubation
Procedure: RKO, RKO E6, H1299 and MEF's were seeded and treated with designated concentration of MEL23. After two days incubation, cells were harvested and fixed in ethanol, followed by staining in a solution of 7.3 μM RNaseA and 98.7 μM propidium iodide (Sigma, St. Louis, Mo.). The samples were read on a FACS Calibur flow cytometer (BD Biosciences, San Jose, Calif.) and analyzed with CeliQuest software (BD Biosciences).

T1 sequence (Q00987 whole entry, the tested form may be a part): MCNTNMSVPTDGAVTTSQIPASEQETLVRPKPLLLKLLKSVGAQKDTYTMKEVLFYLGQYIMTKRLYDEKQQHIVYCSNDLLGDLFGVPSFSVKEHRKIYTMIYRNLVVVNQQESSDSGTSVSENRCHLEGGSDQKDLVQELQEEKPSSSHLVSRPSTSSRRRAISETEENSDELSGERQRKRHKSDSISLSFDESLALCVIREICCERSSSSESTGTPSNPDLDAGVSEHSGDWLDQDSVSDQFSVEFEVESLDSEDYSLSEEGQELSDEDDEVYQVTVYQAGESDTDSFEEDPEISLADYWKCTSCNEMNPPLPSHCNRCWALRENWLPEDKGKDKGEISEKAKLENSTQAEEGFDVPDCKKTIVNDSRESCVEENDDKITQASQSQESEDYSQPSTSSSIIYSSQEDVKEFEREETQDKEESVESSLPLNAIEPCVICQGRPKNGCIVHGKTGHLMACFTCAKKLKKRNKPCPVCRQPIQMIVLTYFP
T2 sequence (Q00987 whole entry C464A, the tested form may be a part): as the sequence (Q00987 whole entry, the tested form may be a part) above, with C464A counted along it

## CCCCn1c(=O)[nH]c(O)c(C2NCCc3c2[nH]c2ccccc32)c1=O (centres unmarked) [MEL23]
[1]
  luminescence of the Mdm2-luciferase cell line: increased the luminescence of the Mdm2-luciferase cell line to a similar level as with MG132 treatment
[1]; EC50, Mdm2-luciferase cell line, 2 hours treatment
  pEC50: 5.12
[2]
  luminescence of the control Mdm2(C464A)-luciferase cell line: did not significantly affect
[3]
  cell cycle: causes G2 cell cycle arrest

## Cn1c(O)c(C2NCCc3c2[nH]c2ccccc32)c(=O)n(C)c1=O (centres unmarked) [MEL24]
[1]
  luminescence of the Mdm2-luciferase cell line: increased the luminescence of the Mdm2-luciferase cell line to a similar level as with MG132 treatment
[1]; Mdm2-luciferase cell line, 2 hours treatment, read-out: EC50 (converted)
  EC50: 9.19 µM and 9.2 µM
[2]
  luminescence of the control Mdm2(C464A)-luciferase cell line: did not significantly affect
[3]
  cell cycle: promotes G2 cell cycle arrest
